Values joined by “and” are separate entries in the source; they are usually repeats but may differ in a detail not shown here. Identical values can stand only once. Records with an inconclusive call do not appear.

The source of these data is PubChem BioAssay AID206 (DTP/NCI, 2004).

This experiment concerns nude mice, HT29 intrarenal xenograft, tumor weight T/C. Put plainly: NCI In Vivo Anticancer Drug Screen. Data for tumor model HT29;CX-1 Human Adenocarcinoma (MER+) (intrarenal inoculation) in NU/NU Swiss (nude) mice. The note with it: endpoint: mean tumor weight change, higher = larger tumour. The method in brief: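 Compounds were given to mice carrying transplantable tumors; a vehicle-dosed group served as control. The endpoint measured in each group was compared as a T/C quotient.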

Setting [1] is: dose: 100.0 mg/kg/injection, schedule: Q01DX010 (sc), vehicle: saline.
[2] abbreviates: dose: 200.0 mg/kg/injection, schedule: Q01DX010 (sc), vehicle: saline.
The mark [3] stands for this setting: dose: 400.0 mg/kg/injection, schedule: Q01DX010 (sc), vehicle: saline.
Setting [4] is: dose: 100.0 mg/kg/injection, schedule: Q01DX010 (sc), vehicle: saline with Tween-80.
Setting [5] is: dose: 200.0 mg/kg/injection, schedule: Q01DX010 (sc), vehicle: saline with Tween-80.
[6] abbreviates: dose: 150.0 mg/kg/injection, schedule: Q04DX004 (sc), vehicle: saline with Tween-80.
The mark [7] stands for this setting: dose: 600.0 mg/kg/injection, schedule: Q04DX004 (sc), vehicle: saline with Tween-80.
The mark [8] stands for this setting: dose: 100.0 mg/kg/injection, schedule: Q04DX004 (sc), vehicle: saline.
Setting [9] is: dose: 200.0 mg/kg/injection, schedule: Q04DX004 (sc), vehicle: saline with Tween-80.
Where [10] appears, read: dose: 400.0 mg/kg/injection, schedule: Q04DX004 (sc), vehicle: saline with Tween-80.

In the case of `C(C#CCN1CCOCC1)#CCN1CCOCC1`, the T/C is, setting by setting: (dose: 600.0 mg/kg/injection, schedule: Q04DX004 (sc), vehicle: Klucel (hydroxypropylcellulose) (HPC)) 100 % of control; (dose: 1200.0 mg/kg/injection, schedule: Q04DX004 (sc), vehicle: Klucel (hydroxypropylcellulose) (HPC)) 72 % of control; (dose: 2400.0 mg/kg/injection, schedule: Q04DX004 (sc), vehicle: Klucel (hydroxypropylcellulose) (HPC)) 68 % of control.

On to `COc1cccc2c1C(=O)c1c(O)c3c(c(O)c1C2=O)C[C@@](O)(C(C)=O)C[C@@H]3OC1CC(N)C(O)C(C)O1` (some centres undefined), for which the T/C (dose: 1.0 mg/kg/injection, schedule: Q01DX010 (sc), vehicle: saline) is 159 % of control.

Regarding `CCCC(=O)O`, the T/C reads like this: under setting [1], 69 % of control; under setting [2], 65 % of control; under setting [3], 110 % of control; (dose: 800.0 mg/kg/injection, schedule: Q01DX010 (sc), vehicle: saline) 79 % of control.

For the compound `S=C=NCCc1ccccc1`, the T/C under setting [4] is 57 % of control (2×) and 61 % of control.

Turning to `CCC[CH2][Sn]1([CH2]CCC)[O]C2C(CO)OC(n3ccc(N)nc3=O)C2[O]1` (centres undefined), the T/C is, setting by setting: (dose: 3.0 mg/kg/injection, schedule: Q04DX004 (sc), vehicle: Klucel (hydroxypropylcellulose) (HPC)) 27 % of control; (dose: 6.0 mg/kg/injection, schedule: Q04DX004 (sc), vehicle: Klucel (hydroxypropylcellulose) (HPC)) 85 % of control; (dose: 12.0 mg/kg/injection, schedule: Q04DX004 (sc), vehicle: Klucel (hydroxypropylcellulose) (HPC)) 109 % of control; (dose: 24.0 mg/kg/injection, schedule: Q04DX004 (sc), vehicle: Klucel (hydroxypropylcellulose) (HPC)) 76 % of control.

As for `O=Cc1ccccc1`, the T/C is, setting by setting: (dose: 200.0 mg/kg/injection, schedule: Q04DX004 (sc), vehicle: Klucel (hydroxypropylcellulose) (HPC)) 119 % of control; (dose: 400.0 mg/kg/injection, schedule: Q04DX004 (sc), vehicle: Klucel (hydroxypropylcellulose) (HPC)) 107 % of control.

In the case of `CCO/C=C1\SC(=S)N(c2ccccc2C)C1=O`, the T/C under setting [4] is 80 % of control; the T/C under setting [5] was 102 % of control; the T/C (dose: 400.0 mg/kg/injection, schedule: Q01DX010 (sc), vehicle: saline with Tween-80) is 177 % of control; the T/C (dose: 800.0 mg/kg/injection, schedule: Q01DX010 (sc), vehicle: saline with Tween-80) was 107 % of control.

Take `C[n+]1c(/C=N/NC(N)=S)ccc2ccccc21`: the T/C is, setting by setting: under setting [6], 75 % of control; under setting [7], 66 % of control; (dose: 1200.0 mg/kg/injection, schedule: Q04DX004 (sc), vehicle: saline with Tween-80) 72 % of control.

For `COC1C(OC(=O)/C=C/C=C/C=C/C=C/C(=O)O)CCC2(CO2)C1C1(C)OC1CC=C(C)C` (centres undefined), the T/C by setting is: (dose: 75.0 mg/kg/injection, schedule: Q04DX004 (sc), vehicle: saline) 104 % of control; (dose: 150.0 mg/kg/injection, schedule: Q04DX004 (sc), vehicle: saline) 96 % of control; (dose: 300.0 mg/kg/injection, schedule: Q04DX004 (sc), vehicle: saline) 119 % of control.

Consider `Cc1oc2c(C)c3oc(=O)cc(C)c3cc2c1CCl`, for which the T/C under setting [6] was 107 % of control; the T/C (dose: 300.0 mg/kg/injection, schedule: Q04DX004 (sc), vehicle: saline with Tween-80) was 71 % of control; the T/C under setting [7] was 114 % of control.

On to `CCCC(=O)Oc1ccc(/C=N/NC(N)=S)nc1`, for which the T/C under setting [4] is 182 % of control and the T/C under setting [5] was 168 % of control.

`CC[C@@H](C)[C@@H]1NC(=O)C(NC(=O)C(CC(C)C)N(C)C(=O)C2CCCN2C(=O)C(C)O)C(C)OC(=O)C(Cc2ccc(OC)cc2)N(C)C(=O)C2CCCN2C(=O)C(CC(C)C)NC(=O)C(C)C(=O)C(C(C)C)OC(=O)C[C@H]1O` (some centres undefined): the T/C was 105 % of control (dose: 225.0 micrograms/kg/injection, schedule: Q04DX004 (sc), vehicle: distilled water + alcohol); 106 % of control (dose: 450.0 micrograms/kg/injection, schedule: Q04DX004 (sc), vehicle: distilled water + alcohol); 78 % of control (dose: 900.0 micrograms/kg/injection, schedule: Q04DX004 (sc), vehicle: distilled water + alcohol); 29 % of control (dose: 1800.0 micrograms/kg/injection, schedule: Q04DX004 (sc), vehicle: distilled water + alcohol).

On to `O=C(O)C1CC1.[Ag]`, for which the T/C is 81 % of control (dose: 75.0 mg/kg/injection, schedule: Q04DX004 (sc), vehicle: saline with Tween-80) and 64 % of control under setting [6].

As to `CCN=C=NCCCN(C)C`, the T/C (dose: 25.0 mg/kg/injection, schedule: Q04DX004 (sc), vehicle: saline) is 90 % of control; the T/C (dose: 50.0 mg/kg/injection, schedule: Q04DX004 (sc), vehicle: saline) is 78 % of control; the T/C under setting [8] was 38 % of control.

Regarding `CC[C@]1(O)C[C@H]2CN(CCc3c([nH]c4ccccc34)[C@@](C(=O)OC)(c3cc4c(cc3OC)N(C=O)[C@H]3[C@@](O)(C(=O)OC)[C@H](OC(C)=O)[C@]5(CC)C=CCN6CC[C@]43[C@@H]65)C2)C1`, the T/C is, setting by setting: (dose: 0.13 mg/kg/injection, schedule: Q01DX010 (sc), vehicle: saline) 86 % of control; (dose: 0.25 mg/kg/injection, schedule: Q01DX010 (sc), vehicle: saline) 84 % of control.

As for `CN1CCN(c2ccc3nc(-c4ccc5nc(-c6ccc(O)cc6)[nH]c5c4)[nH]c3c2)CC1`, the T/C under setting [8] was 35 % of control; the T/C (dose: 200.0 mg/kg/injection, schedule: Q04DX004 (sc), vehicle: saline) was 61 % of control; the T/C (dose: 800.0 mg/kg/injection, schedule: Q04DX004 (sc), vehicle: saline) was 56 % of control.

On to `c1cc(OCC2CO2)ccc1OCC1CO1` (centres undefined), for which the T/C is, setting by setting: under setting [9], 79 % of control; under setting [10], 106 % of control.

As to `C1OCN2CSCC12` (centres undefined), the T/C is 39 % of control (dose: 100.0 mg/kg/injection, schedule: Q04DX004 (sc), vehicle: saline with Tween-80); 80 % of control under setting [9]; 46 % of control under setting [10].

Take `CC(=O)C(=O)O.CC(=O)C(=O)O.[NH-]C1CCCCC1[NH-].[Pt+2]` (centres undefined): the T/C by setting is: (dose: 15.0 mg/kg/injection, schedule: Q04DX004 (sc), vehicle: other) 64 % of control; (dose: 30.0 mg/kg/injection, schedule: Q04DX004 (sc), vehicle: other) 64 % of control; (dose: 60.0 mg/kg/injection, schedule: Q04DX004 (sc), vehicle: other) 47 % of control.

`O=C(NO)c1cc(O)c(O)c(O)c1`: the T/C is, setting by setting: (dose: 200.0 mg/kg/injection, schedule: Q04DX004 (sc), vehicle: water) 83 % of control; (dose: 400.0 mg/kg/injection, schedule: Q04DX004 (sc), vehicle: water) 60 % of control; (dose: 800.0 mg/kg/injection, schedule: Q04DX004 (sc), vehicle: water) 56 % of control; (dose: 1600.0 mg/kg/injection, schedule: Q04DX004 (sc), vehicle: water) 71 % of control.

Consider `CCOC(=O)CNC(=O)Sc1ccc(C(C)(C)C)cc1`, for which the T/C is, setting by setting: (dose: 300.0 mg/kg/injection, schedule: Q04DX003 (sc), vehicle: Klucel (hydroxypropylcellulose) (HPC)) 98 % of control; (dose: 600.0 mg/kg/injection, schedule: Q04DX003 (sc), vehicle: Klucel (hydroxypropylcellulose) (HPC)) 113 % of control; (dose: 1200.0 mg/kg/injection, schedule: Q04DX003 (sc), vehicle: Klucel (hydroxypropylcellulose) (HPC)) 44 % of control; (dose: 2400.0 mg/kg/injection, schedule: Q04DX003 (sc), vehicle: Klucel (hydroxypropylcellulose) (HPC)) 103 % of control.

For `O=c1[nH]c(=O)n([C@H]2CCCO2)cc1F`, the T/C by setting is: (dose: 100.0 mg/kg/injection, schedule: Q01DX010 (sc), vehicle: Klucel (hydroxypropylcellulose) (HPC)) 55 % of control; (dose: 200.0 mg/kg/injection, schedule: Q01DX010 (sc), vehicle: Klucel (hydroxypropylcellulose) (HPC)) 103 % of control.

As to `F[B-](F)(F)F`, the T/C (dose: 225.0 mg/kg/injection, schedule: Q04DX004 (sc), vehicle: gum acacia) was 106 % of control; the T/C (dose: 450.0 mg/kg/injection, schedule: Q04DX004 (sc), vehicle: gum acacia) is 85 % of control; the T/C (dose: 900.0 mg/kg/injection, schedule: Q04DX004 (sc), vehicle: gum acacia) was 69 % of control.

`N=C(N)Sc1ccccn1`: the T/C runs as follows: (dose: 50.0 mg/kg/injection, schedule: Q01DX010 (sc), vehicle: saline) 89 % of control; under setting [1], 100 % of control; under setting [2], 41 % of control; under setting [3], 74 % of control.
